{"source": "ChEMBL document CHEMBL1126318", "about": "“Discovery of a potent substance P antagonist: recognition of the key molecular determinant” (J Med Chem, 1992)", "target": "Substance-P receptor (Homo sapiens, UniProt P25103)", "sequence (P25103 whole entry)": "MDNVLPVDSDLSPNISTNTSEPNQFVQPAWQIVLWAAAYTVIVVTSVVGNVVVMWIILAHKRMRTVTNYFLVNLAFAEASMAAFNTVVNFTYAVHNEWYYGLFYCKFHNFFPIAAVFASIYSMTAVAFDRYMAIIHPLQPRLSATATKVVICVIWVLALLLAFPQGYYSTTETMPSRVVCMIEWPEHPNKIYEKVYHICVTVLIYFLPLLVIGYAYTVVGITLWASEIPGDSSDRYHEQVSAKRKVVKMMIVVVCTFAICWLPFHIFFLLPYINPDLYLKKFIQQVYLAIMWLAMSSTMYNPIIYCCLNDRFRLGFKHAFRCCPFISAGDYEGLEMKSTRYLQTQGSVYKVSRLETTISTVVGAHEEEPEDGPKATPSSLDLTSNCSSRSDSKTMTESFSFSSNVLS", "test": "In vitro binding affinity for the Tachykinin receptor 1 in human IM-9 cell using [125I]BH-SP of the compound.", "type": "cell-based"}
{"smiles": "COc1ccccc1CN[C@H]1CCCN[C@H]1C(c1ccccc1)c1ccccc1", "note": "(racemic)", "values": [{"measurement": "Ki", "value": 49, "unit": "nM"}]}
